According to paper PMC5814047, “Peptidic inhibitors of insulin-degrading enzyme with potential for dermatological applications discovered via phage display” (PLoS ONE, 2018):
Several values for one entry are separate records, joined by “and”; a condition that tells them apart may be missing. Identical values can stand only once. Like-named read-outs stand apart in the source and are kept apart here. Bridge positions count the residues as written; N and C are the ends. Ends that are not written are not given here. Peptide text beside a SMILES is read from it.

Target: T1, IDE (Homo sapiens, UniProt P14735)
T1 construct: made in house; host or cells: bacteria
T1 sequence (P14735 1-1019): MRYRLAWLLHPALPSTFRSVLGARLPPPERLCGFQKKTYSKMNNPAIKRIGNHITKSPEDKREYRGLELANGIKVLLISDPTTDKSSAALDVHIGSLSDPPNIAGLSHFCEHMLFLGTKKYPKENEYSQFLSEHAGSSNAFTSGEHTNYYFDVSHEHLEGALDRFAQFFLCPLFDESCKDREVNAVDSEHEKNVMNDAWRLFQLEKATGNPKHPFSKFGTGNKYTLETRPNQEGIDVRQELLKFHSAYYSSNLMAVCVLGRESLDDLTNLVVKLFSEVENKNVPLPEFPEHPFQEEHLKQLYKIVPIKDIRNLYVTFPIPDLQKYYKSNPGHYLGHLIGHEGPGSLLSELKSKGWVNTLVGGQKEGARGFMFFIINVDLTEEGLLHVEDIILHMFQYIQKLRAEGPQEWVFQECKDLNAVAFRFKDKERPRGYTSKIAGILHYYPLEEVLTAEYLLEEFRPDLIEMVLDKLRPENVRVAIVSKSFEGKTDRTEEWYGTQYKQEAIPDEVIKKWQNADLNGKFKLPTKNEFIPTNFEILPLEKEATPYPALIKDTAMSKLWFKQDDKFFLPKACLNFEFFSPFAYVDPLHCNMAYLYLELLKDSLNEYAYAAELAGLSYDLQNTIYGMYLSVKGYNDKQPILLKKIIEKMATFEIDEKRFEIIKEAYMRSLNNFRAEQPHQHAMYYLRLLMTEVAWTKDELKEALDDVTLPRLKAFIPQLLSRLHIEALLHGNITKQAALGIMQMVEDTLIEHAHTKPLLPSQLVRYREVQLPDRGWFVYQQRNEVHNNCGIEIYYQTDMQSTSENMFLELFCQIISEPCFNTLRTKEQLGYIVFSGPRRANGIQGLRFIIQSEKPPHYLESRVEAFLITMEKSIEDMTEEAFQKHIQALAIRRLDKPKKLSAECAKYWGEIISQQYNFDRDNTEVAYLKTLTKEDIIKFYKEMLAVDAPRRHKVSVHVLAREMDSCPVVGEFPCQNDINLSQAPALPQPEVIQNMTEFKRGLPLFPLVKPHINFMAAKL
Test: biochemical
Settings: for IC50 <10 uM?: initial test at 10 uM using insulin (100 nM); for remaining activity at 0.016 µM: Cmpd 0.016 uM; for remaining activity at 0.08 µM: Cmpd 0.08 uM; for remaining activity at 0.4 µM: Cmpd 0.4 uM; for remaining activity at 2 µM: Cmpd 2 uM; for remaining activity at 10 µM: Cmpd 10 uM
How it was run: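 Bacterially expressed recombinant human IDE (1 nM) in PBS with 0.05% BSA. Substrates: FRET1 (5 μM; fluorescence, ex 340/em 420 nm), fluoresceinated biotinylated amyloid β-protein (500 nM; fluorescence polarization, ex 488/em 525 nm), or recombinant human insulin (50 nM; ELISA).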

[1] = insulin ELISA, Runs 1-3, read-out: Percent Activity (normalized source data)
[2] = substrate recombinant human insulin 50 nM, Ki from IC50 with the Cheng-Prusoff equation
[3] = insulin ELISA assay, dose-response, Replicates 1-3, read-out: IC50s, individual replicates
[4] = insulin ELISA assay, dose-response, N=3, read-out: IC50s, Mean

| IC50 <10 uM? | remaining activity at 0.016 µM [1] [%] | remaining activity at 0.08 µM [1] [%] | remaining activity at 0.4 µM [1] [%] | remaining activity at 2 µM [1] [%] | remaining activity at 10 µM [1] [%] | Hill slope (dose-response of P12-3A against insulin degradation by IDE, Fig 3B) | remaining activity at 50 µM (insulin ELISA, Cmpd 50 uM, Runs 1-3, read-out: Percent Activity (normalized source data)) [%] | remaining activity at 0.0316228 µM (resynthesized P12-3A 0.0316228 uM, individual replicates, read-out: Percent Activity (normalized source data)) [%] | IC50 (from initial test at 10 uM using insulin (100 nM), read-out: IC50 (summary of results, listed in Table 1)) [nM] | Ki [2] [nM] | IC50 [3] | IC50 [4] [nM] | Ki (as restated in the Discussion, read-out: Ki (insulin)) [nM] | Compound |
| --- | --- | --- | --- | --- | --- | --- | --- | --- | --- | --- | --- | --- | --- | --- |
| YES | 66.3 | 72.2 | 62.9 | 64.4 | 37.6 |  |  |  |  |  |  |  |  | CC(C)C[C@H](NC(=O)[C@H](CO)NC(=O)[C@@H](N)CCC(N)=O)C(=O)N1CCC[C@H]1C(=O)N[C@@H](Cc1c[nH]c2ccccc12)C(=O)N[C@H]1CSSC[C@@H](C(=O)N[C@H](C(=O)N[C@H](C(=O)O)[C@@H](C)O)C(C)C)NC(=O)[C@H](Cc2c[nH]cn2)NC(=O)[C@@H]2CCCN2C(=O)[C@H](Cc2ccc(O)cc2)NC1=O [P12-3] (H-QSLPWCYPHCVT-OH; disulfide 6-10 (inferred)) |
| YES | 90.2 | 84.4 | 76.5 | 62.5 | 47.7 | 0.91 ± 0.15 | 28.6 | 98.5 |  |  |  |  |  | CC(C)C[C@H](NC(=O)[C@H](CO)NC(=O)[C@@H](N)CCC(N)=O)C(=O)N1CCC[C@H]1C(=O)N[C@@H](Cc1c[nH]c2ccccc12)C(=O)N[C@H]1CSSC[C@@H](C(=O)N[C@H](C(=O)N[C@H](C(N)=O)[C@@H](C)O)C(C)C)NC(=O)[C@H](Cc2c[nH]cn2)NC(=O)[C@@H]2CCCN2C(=O)[C@H](Cc2ccc(O)cc2)NC1=O [P12-3A] (H-QSLPWCYPHCVT-NH2; disulfide 6-10 (inferred)) |
|  |  |  |  |  |  |  |  |  | > 10000 | > 10000 |  |  |  | QSLPWCYP-NH2 [P12-3B] |
| YES |  |  |  |  |  |  |  |  |  | 1300 ± 200 | 3220 nM and 1930 nM and 2380 nM | 2510 |  | VHWDFRQWWQPS-NH2 [P12-1A] |
| YES |  |  |  |  |  |  |  |  |  | 800 ± 40 | 1580 nM and 1470 nM and 1720 nM | 1590 | 800 | VHWDFRQWWQPS [P12-1] |
| YES |  |  |  |  |  |  |  |  |  | 1500 ± 300 | 1900 nM and 3160 nM and 3780 nM | 2950 |  | WSPISGKFFQRF [P12-4] |
